From article PMC9596378, “Discovery and molecular basis of subtype-selective cyclophilin inhibitors” (Nature Chemical Biology, 2022)
Several values for one entry are separate records, joined by “and”; a condition that tells them apart may be missing. Equal values may be shown once. Read-outs that look alike come from different tables or passages of the source.

How the values were obtained:
CypB = target: T1, CypB (Homo sapiens, UniProt P23284); experiment: biochemical
T1 construct: PPIB (UniProtKB Entry P23284: residues 34–216); His6 with TEV site (2BT vector leader) (N); made in house; host or cells: E. coli BL21(DE3)
T1 sequence (P23284 34-216): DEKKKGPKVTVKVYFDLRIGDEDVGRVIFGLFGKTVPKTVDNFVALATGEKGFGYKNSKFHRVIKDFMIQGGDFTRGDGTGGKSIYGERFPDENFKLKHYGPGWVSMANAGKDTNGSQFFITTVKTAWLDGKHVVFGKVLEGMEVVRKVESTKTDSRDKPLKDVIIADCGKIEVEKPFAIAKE
How it was run: (§1)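 Steps: cyclophilin plus compound 5 min at 2–3 °C; α-chymotrypsin added, 5 min more; Suc-AAPF-AMC substrate in LiCl/trifluoroethanol injected and fluorescence followed 330 s. Finals: 5 nM enzyme, 25 µM chymotrypsin, 5 µM substrate, 0.25% DMSO.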

NKTR = target: T2, NKTR (Homo sapiens, UniProt P30414); experiment: Chymotrypsin coupled prolyl-isomerase assay; assay type: biochemical
T2 construct: NKTR (UniProtKB Entry P30414: residues 7–179); host or cells: E. coli BL21(DE3)
T2 sequence (P30414 7-179): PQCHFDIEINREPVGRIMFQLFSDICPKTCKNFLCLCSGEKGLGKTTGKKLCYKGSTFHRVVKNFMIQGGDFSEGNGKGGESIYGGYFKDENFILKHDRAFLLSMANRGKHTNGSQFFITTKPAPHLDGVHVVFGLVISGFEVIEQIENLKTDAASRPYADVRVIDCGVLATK

PPIL1 = target: T3, PPIL1 (Homo sapiens, UniProt Q9Y3C6); experiment: Chymotrypsin coupled prolyl-isomerase assay; assay type: biochemical
T3 construct: PPIL1 (UniProtKB Entry Q9Y3C6: residues 1–166); made in house; host or cells: E. coli BL21(DE3)
T3 sequence (Q9Y3C6 1-166): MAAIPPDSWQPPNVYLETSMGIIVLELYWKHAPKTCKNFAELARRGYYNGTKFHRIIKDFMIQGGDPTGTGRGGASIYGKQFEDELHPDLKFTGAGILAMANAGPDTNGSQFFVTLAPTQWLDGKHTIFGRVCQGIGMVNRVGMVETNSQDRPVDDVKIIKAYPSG

CypA = target: T4, CypA (Homo sapiens, UniProt P62937); experiment: Chymotrypsin coupled prolyl-isomerase assay; assay type: biochemical
T4 construct: PPIA (UniProtKB Entry P62937: residues 1–165); made in house; host or cells: E. coli BL21(DE3)
T4 sequence (P62937 whole entry, the tested form may be a part): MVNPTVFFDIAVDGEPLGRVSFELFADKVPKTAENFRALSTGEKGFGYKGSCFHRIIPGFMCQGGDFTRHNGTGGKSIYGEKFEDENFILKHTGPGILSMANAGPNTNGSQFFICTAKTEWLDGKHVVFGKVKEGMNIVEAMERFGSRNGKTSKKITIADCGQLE
How it was run: as §1

CypG = target: T5, CypG (Homo sapiens, UniProt Q13427); experiment: Chymotrypsin coupled prolyl-isomerase assay; assay type: biochemical; conditions: wild-type CypG; read-out: Wild-Type Cyclophilin Prolyl Isomerase Inhibition IC50 Values, CypG
T5 construct: PPIG (UniProtKB Entry Q13427: residues 1–179); His6 with thrombin site (pET28a LIC leader) (N); host or cells: E. coli BL21(DE3)
T5 sequence (Q13427 1-179): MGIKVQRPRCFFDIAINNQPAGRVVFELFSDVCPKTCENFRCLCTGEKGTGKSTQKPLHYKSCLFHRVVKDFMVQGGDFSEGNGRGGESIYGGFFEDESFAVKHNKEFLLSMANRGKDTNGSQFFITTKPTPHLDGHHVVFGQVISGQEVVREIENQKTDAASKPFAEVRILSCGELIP
How it was run: as §1

CypE = target: T6, CypE (Homo sapiens, UniProt Q9UNP9); experiment: Chymotrypsin coupled prolyl-isomerase assay; assay type: biochemical
T6 construct: PPIE (UniProtKB Entry Q9UNP9: residues 131–301); host or cells: E. coli BL21(DE3)
T6 sequence (Q9UNP9 131-301): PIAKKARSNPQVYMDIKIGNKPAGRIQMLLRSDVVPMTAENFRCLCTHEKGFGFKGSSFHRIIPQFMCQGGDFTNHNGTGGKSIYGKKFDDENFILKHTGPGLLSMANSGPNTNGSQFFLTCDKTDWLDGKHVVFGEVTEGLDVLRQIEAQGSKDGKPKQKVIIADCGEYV
How it was run: as §1

CypH = target: T7, CypH (Homo sapiens, UniProt O43447); experiment: Chymotrypsin coupled prolyl-isomerase assay; assay type: biochemical
T7 construct: PPIH (UniProtKB Entry O43447: residues 1–177); His6 with TEV site (2BT vector leader) (N); made in house; host or cells: E. coli BL21(DE3)
T7 sequence (O43447 whole entry, the tested form may be a part): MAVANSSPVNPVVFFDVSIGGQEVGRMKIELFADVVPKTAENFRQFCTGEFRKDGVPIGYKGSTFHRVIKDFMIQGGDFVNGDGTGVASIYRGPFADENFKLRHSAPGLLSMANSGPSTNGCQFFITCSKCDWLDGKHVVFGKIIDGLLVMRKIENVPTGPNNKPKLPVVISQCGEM
How it was run: as §1

CypC = target: T8, CypC (Homo sapiens, UniProt P45877); experiment: Chymotrypsin coupled prolyl-isomerase assay; assay type: biochemical
T8 construct: PPIC (UniProtKB Entry P45877: residues 24–212); host or cells: E. coli BL21(DE3)
T8 sequence (P45877 24-212): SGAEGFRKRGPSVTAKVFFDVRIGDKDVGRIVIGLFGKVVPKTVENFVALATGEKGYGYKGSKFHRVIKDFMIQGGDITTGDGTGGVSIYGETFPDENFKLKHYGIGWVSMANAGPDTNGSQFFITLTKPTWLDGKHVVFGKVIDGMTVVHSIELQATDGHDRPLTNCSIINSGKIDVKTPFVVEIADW
How it was run: as §1

[1] = wild-type CypB, read-out: Wild-Type Cyclophilin Prolyl Isomerase Inhibition IC50 Values, CypB
[2] = prolyl-isomerase inhibition, 5 nM cyclophilin, read-out: IC50 NKTR
[3] = wild-type NKTR, read-out: Wild-Type Cyclophilin Prolyl Isomerase Inhibition IC50 Values, NKTR
[4] = wild-type PPIL1, read-out: Wild-Type Cyclophilin Prolyl Isomerase Inhibition IC50 Values, PPIL1
[5] = prolyl-isomerase inhibition, 5 nM cyclophilin, read-out: IC50 CypA
[6] = wild-type CypA, read-out: Wild-Type Cyclophilin Prolyl Isomerase Inhibition IC50 Values, CypA
[7] = prolyl-isomerase inhibition, 5 nM cyclophilin, read-out: IC50 CypH
[8] = wild-type CypH, read-out: Wild-Type Cyclophilin Prolyl Isomerase Inhibition IC50 Values, CypH
[9] = wild-type CypC, read-out: Wild-Type Cyclophilin Prolyl Isomerase Inhibition IC50 Values, CypC

Row | IC50 (CypE; wild-type CypE, read-out: Wild-Type Cyclophilin Prolyl Isomerase Inhibition IC50 Values, CypE) | Structure (SMILES) | IC50 (CypB; [1]) | IC50 (NKTR; [2]) | IC50 (NKTR; [3]) | IC50 (PPIL1; [4]) | IC50 (CypA; [5]) | IC50 (CypA; [6]) | IC50 (CypG) | IC50 (CypH; [7]) | IC50 (CypH; [8]) | IC50 (CypC; [9]) | IC50 (CypB; prolyl-isomerase inhibition, 5 nM cyclophilin, read-out: IC50 CypB) | IC50 (PPIL1; prolyl-isomerase inhibition, 5 nM cyclophilin, read-out: IC50 PPIL1) | IC50 (CypE; prolyl-isomerase inhibition, 5 nM cyclophilin, read-out: IC50 CypE) | IC50 (CypC; prolyl-isomerase inhibition, 5 nM cyclophilin, read-out: IC50 CypC)
1 | 23 µM | NCCOCCNC(=O)C1CCNC(=O)C=CC(=O)N2CCCC(C2)C(=O)NC(Cc2ccco2)C(=O)NCc2ccccc2CC(=O)N1 (stereo not shown) [JOMBt] | 5 µM | ~60 µM | 60 µM | 40 µM | ~60 µM | 60 µM | 16 µM | ~100 µM | 100 µM | 23 µM | – | – | – | –
2 | – | NC(=O)[C@@H]1CCNC(=O)/C=C/C(=O)N2CCC[C@](Cc3ccccc3)(C2)C(=O)N[C@@H](Cc2ccc(-c3cccc(B(O)O)c3)cc2)C(=O)NCc2ccccc2CC(=O)N1 [Compound C6A] | 8 µM | > 10 µM | 5 µM | > 10 µM | ~6 µM | 6 µM | 1.3 µM | ~4 µM | 4 µM | 5 µM | ~8 µM | ~5 µM | ~4 µM and 4 µM | ~5 µM
